target: T1, A-Raf kinase (Homo sapiens, UniProt P10398, Y301D/Y302D); assay: Biochemical assay for A-Raf.1 (coupled pyruvate kinase/lactate dehydrogenase); conditions: read-out: ARAF.1 IC50
T1 construct: purchased Sigma
Procedure, shortened: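 A-Raf (5.55 nM) phosphorylating 30.1 nM MEK with 1 mM ATP was monitored by pyruvate kinase/lactate dehydrogenase-coupled NADH oxidation at 340 nm for 6 h at 30° C, in pH 7.5 Tris buffer with 15 mM MgCl2, 1% DMSO. Rates from 4–5 h gave percent inhibition; IC50 by four-parameter fit.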

T1 sequence (P10398 with tags, fused parts or gaps Y301D/Y302D): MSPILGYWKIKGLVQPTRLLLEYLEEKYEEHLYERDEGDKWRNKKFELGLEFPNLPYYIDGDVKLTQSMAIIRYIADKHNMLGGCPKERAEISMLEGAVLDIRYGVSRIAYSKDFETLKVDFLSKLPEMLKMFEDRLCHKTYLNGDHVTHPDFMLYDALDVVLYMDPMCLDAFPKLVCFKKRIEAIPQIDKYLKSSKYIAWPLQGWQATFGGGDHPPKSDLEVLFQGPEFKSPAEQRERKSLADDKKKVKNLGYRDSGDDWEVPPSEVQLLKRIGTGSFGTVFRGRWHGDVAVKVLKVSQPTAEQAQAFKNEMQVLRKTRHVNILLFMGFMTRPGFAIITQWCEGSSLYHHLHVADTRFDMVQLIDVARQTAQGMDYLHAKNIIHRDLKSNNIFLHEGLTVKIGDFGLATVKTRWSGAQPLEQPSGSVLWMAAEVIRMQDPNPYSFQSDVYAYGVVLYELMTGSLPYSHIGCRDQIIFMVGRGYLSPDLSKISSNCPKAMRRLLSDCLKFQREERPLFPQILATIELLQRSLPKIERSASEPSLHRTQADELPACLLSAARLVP

| Structure (SMILES) | IC50 [µM] |
| --- | --- |
| Cc1cc(F)c(NC(=O)NCCC(C)(C)C)cc1-c1cc(OCCO)nc(C2=CCOCC2)c1 [Example 7] | > 1 |
| Cc1cc(F)c(NC(=O)NCCC(C)(C)C)cc1-c1cc(N2CCOCC2)nc(N2CCOCC2)c1 [Example 10] | > 1 |
| Cc1cc(F)c(NC(=O)NCCC(C)(C)F)cc1-c1cc(OCCO)nc(-c2ccnc3[nH]ncc23)c1 [Example 94] | > 1 |
| Cc1cc(F)c(NC(=O)NCCC(C)(C)F)cc1-c1cc(OCCO)nc(-c2ccnc3[nH]ccc23)c1 [Example 97] | > 1 |
| Cc1cc(F)c(NC(=O)NCC(C)C)cc1-c1cc(OCCO)nc(-c2ccnc(NC(=O)C3CC3)c2)c1 [Example 99] | 0.5 to 1 |
| Cc1cc(F)c(NC(=O)NCCC(C)(C)F)cc1-c1cccc(-c2ccnc3[nH]ncc23)c1 [Example 100] | > 1 |
| Cc1cc(F)c(NC(=O)NC2CC3(COC3)C2)cc1-c1cc(OCCO)nc(-c2ccnc3[nH]ncc23)c1 [Example 101] | > 1 |
| Cc1ncc(NC(=O)NC[C@H](O)C(C)(C)C)cc1-c1ccnc(-c2ccnc(NC(=O)C3CC3)c2)c1 [Example 102] | > 1 |
| COC(=O)Nc1cc(-c2cc(-c3cc(NC(=O)NCCC4(C)CC4)cnc3C)ccn2)ccn1 [Example 103] | > 1 |
| COC1(CCNC(=O)Nc2cc(-c3cccc(-c4cc(NC(=O)C5CC5)ncn4)c3)c(C)cc2F)CC1 [Example 104] | 0.1 to 0.5 |
| Cc1cc(F)c(NC(=O)NCCC(F)F)cc1-c1cc(OCCO)nc(-c2ccnc(NC(=O)C3CC3)c2)c1 [Example 105] | 0.1 to 0.5 |
| COC(=O)Nc1nccc(-c2cc(OCCO)cc(-c3cc(NC(=O)NCCC4(C)CC4)c(F)cc3C)c2)n1 [Example 122] | > 1 |
| CNC(=O)c1cc(-c2cnnc(-c3cc(NC(=O)NCCC(C)(C)OC)c(F)cc3C)c2)ccn1 [Example 123] | > 1 |
| Cc1cc(F)c(NC(=O)NCCC(C)(C)C)cc1-c1cc(-c2ccnc(NC(=O)C3CC3)c2)cnn1 [Example 131] | 0.1 to 0.5 |
| CNC(=O)c1cc(-c2cnnc(-c3cc(NC(=O)NCCC(C)(C)F)c(F)cc3C)c2)ccn1 [Example 132] | > 1 |

tested on: Miapaca-2 cells; assay: MiaPaca-2 cell proliferation assay (1), resazurin, 96-well; type: cell-based; conditions: Homo sapiens, MIA PaCa-2, inhibition of cell proliferation
Experimental: MiaPaca-2 Cell Proliferation Assay (1)
Miapaca-2 cells (catalog #CRL-1420) are obtained from the American Type Culture Collect (ATTC, Manassas, VA). Briefly, cells were grown in DMEM supplemented with 10% characterized fetal bovine serum (Invitrogen, Carlsbad, CA), 2.5% New Zealand sourced horse serum and 1% Penicillin/Streptomycin/L-Glutamine at 37° C., 5% CO2, and 95% humidity. Cells are expanded until reaching 70-95% confluency at which point they are subcultured or harvested for assay use. A serial dilution of test compound is dispensed into a 96-well black clear bottom plate in triplicate. Three thousand cells are added per well in 200 μL complete growth medium in the 96-well plate. Plates are incubated for 67-72 hours at 37° C., 5% CO2, and 95% humidity. At the end of the incubation, 40 μL of a 440 μM solution of resazurin (Sigma, St. Louis, MO) in PBS is added to each well of the plate and plates are incubated for an additional 5-6 hours at 37° C., 5% CO2, and 95% humidity. Plates are read on a Synergy2 or equivalent reader (Biotek, Winooski VT) using an excitation of 540 nm and an emission of 600 nm. Data is analyzed using Prism software (GraphPad, San Diego, CA) to calculate IC50 values.

| Structure (SMILES) | IC50 [µM] |
| --- | --- |
| Cc1cc(F)c(NC(=O)NCCC(C)(C)C)cc1-c1cc(OCCO)nc(C2=CCOCC2)c1 [Example 7] | 1 to 10 |
| Cc1cc(F)c(NC(=O)NCCC(C)(C)F)cc1-c1cc(OCCO)nc(-c2ccnc3[nH]ncc23)c1 [Example 94] | 1 to 10 |
| Cc1cc(F)c(NC(=O)NCCC(C)(C)F)cc1-c1cc(OCCO)nc(-c2ccnc3[nH]ccc23)c1 [Example 97] | 1 to 10 |
| Cc1cc(F)c(NC(=O)NCC(C)C)cc1-c1cc(OCCO)nc(-c2ccnc(NC(=O)C3CC3)c2)c1 [Example 99] | 1 to 10 |
| Cc1cc(F)c(NC(=O)NCCC(C)(C)F)cc1-c1cccc(-c2ccnc3[nH]ncc23)c1 [Example 100] | 1 to 10 |
| Cc1cc(F)c(NC(=O)NC2CC3(COC3)C2)cc1-c1cc(OCCO)nc(-c2ccnc3[nH]ncc23)c1 [Example 101] | 1 to 10 |
| Cc1ncc(NC(=O)NC[C@H](O)C(C)(C)C)cc1-c1ccnc(-c2ccnc(NC(=O)C3CC3)c2)c1 [Example 102] | 1 to 10 |
| COC(=O)Nc1cc(-c2cc(-c3cc(NC(=O)NCCC4(C)CC4)cnc3C)ccn2)ccn1 [Example 103] | 1 to 10 |
| COC1(CCNC(=O)Nc2cc(-c3cccc(-c4cc(NC(=O)C5CC5)ncn4)c3)c(C)cc2F)CC1 [Example 104] | 1 to 10 |
| Cc1cc(F)c(NC(=O)NCCC(F)F)cc1-c1cc(OCCO)nc(-c2ccnc(NC(=O)C3CC3)c2)c1 [Example 105] | 1 to 10 |
| COC(=O)Nc1nccc(-c2cc(OCCO)cc(-c3cc(NC(=O)NCCC4(C)CC4)c(F)cc3C)c2)n1 [Example 122] | 1 to 10 |
| CNC(=O)c1cc(-c2cnnc(-c3cc(NC(=O)NCCC(C)(C)OC)c(F)cc3C)c2)ccn1 [Example 123] | 1 to 10 |
| Cc1cc(F)c(NC(=O)NCCC(C)(C)C)cc1-c1cc(-c2ccnc(NC(=O)C3CC3)c2)cnn1 [Example 131] | 1 to 10 |
| CNC(=O)c1cc(-c2cnnc(-c3cc(NC(=O)NCCC(C)(C)F)c(F)cc3C)c2)ccn1 [Example 132] | 1 to 10 |

target: T2, C-Raf kinase (Homo sapiens, UniProt P04049, Y340D/Y341D); assay: Biochemical assay for C-Raf.1 (coupled pyruvate kinase/lactate dehydrogenase); conditions: read-out: CRAF.1 IC50
T2 construct: Y340D,; GST (N); purchased Sigma
Procedure, shortened: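 C-Raf (0.43 nM) with MEK 30.1 nM and 1 mM ATP in Tris pH 7.5/MgCl2 buffer, activity coupled via PK/LDH to NADH oxidation (A340), 6 h at 30° C. Rates from 4–5 h window converted to % inhibition versus controls; IC50 by four-parameter fit, 1% DMSO.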

T2 sequence (P04049 307-648 Y340D/Y341D): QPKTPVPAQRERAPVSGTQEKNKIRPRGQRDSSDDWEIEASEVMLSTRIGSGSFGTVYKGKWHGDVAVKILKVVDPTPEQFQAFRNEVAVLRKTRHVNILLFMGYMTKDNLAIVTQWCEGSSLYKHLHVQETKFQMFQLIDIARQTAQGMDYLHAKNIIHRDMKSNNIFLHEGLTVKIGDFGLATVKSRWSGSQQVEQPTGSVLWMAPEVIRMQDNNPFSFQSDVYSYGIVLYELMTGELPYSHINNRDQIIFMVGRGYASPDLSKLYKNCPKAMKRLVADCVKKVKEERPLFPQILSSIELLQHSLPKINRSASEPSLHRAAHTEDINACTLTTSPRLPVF

| Structure (SMILES) | IC50 [µM] |
| --- | --- |
| Cc1cc(F)c(NC(=O)NCCC(C)(C)C)cc1-c1cc(OCCO)nc(C2=CCOCC2)c1 [Example 7] | ≤ 0.1 |
| Cc1cc(F)c(NC(=O)NCCC(C)(C)C)cc1-c1cc(N2CCOCC2)nc(N2CCOCC2)c1 [Example 10] | ≤ 0.1 |
| Cc1cc(F)c(NC(=O)NCCC(C)(C)F)cc1-c1cc(OCCO)nc(-c2ccnc3[nH]ncc23)c1 [Example 94] | ≤ 0.1 |
| Cc1cc(F)c(NC(=O)NCCC(C)(C)F)cc1-c1cc(OCCO)nc(-c2ccnc3[nH]ccc23)c1 [Example 97] | ≤ 0.1 |
| Cc1cc(F)c(NC(=O)NCC(C)C)cc1-c1cc(OCCO)nc(-c2ccnc(NC(=O)C3CC3)c2)c1 [Example 99] | ≤ 0.1 |
| Cc1cc(F)c(NC(=O)NCCC(C)(C)F)cc1-c1cccc(-c2ccnc3[nH]ncc23)c1 [Example 100] | ≤ 0.1 |
| Cc1cc(F)c(NC(=O)NC2CC3(COC3)C2)cc1-c1cc(OCCO)nc(-c2ccnc3[nH]ncc23)c1 [Example 101] | ≤ 0.1 |
| Cc1ncc(NC(=O)NC[C@H](O)C(C)(C)C)cc1-c1ccnc(-c2ccnc(NC(=O)C3CC3)c2)c1 [Example 102] | ≤ 0.1 |
| COC(=O)Nc1cc(-c2cc(-c3cc(NC(=O)NCCC4(C)CC4)cnc3C)ccn2)ccn1 [Example 103] | ≤ 0.1 |
| COC1(CCNC(=O)Nc2cc(-c3cccc(-c4cc(NC(=O)C5CC5)ncn4)c3)c(C)cc2F)CC1 [Example 104] | ≤ 0.1 |
| Cc1cc(F)c(NC(=O)NCCC(F)F)cc1-c1cc(OCCO)nc(-c2ccnc(NC(=O)C3CC3)c2)c1 [Example 105] | ≤ 0.1 |
| COC(=O)Nc1nccc(-c2cc(OCCO)cc(-c3cc(NC(=O)NCCC4(C)CC4)c(F)cc3C)c2)n1 [Example 122] | ≤ 0.1 |
| CNC(=O)c1cc(-c2cnnc(-c3cc(NC(=O)NCCC(C)(C)OC)c(F)cc3C)c2)ccn1 [Example 123] | 0.5 to 1 |
| Cc1cc(F)c(NC(=O)NCCC(C)(C)C)cc1-c1cc(-c2ccnc(NC(=O)C3CC3)c2)cnn1 [Example 131] | ≤ 0.1 |
| CNC(=O)c1cc(-c2cnnc(-c3cc(NC(=O)NCCC(C)(C)F)c(F)cc3C)c2)ccn1 [Example 132] | 0.1 to 0.5 |

tested on: WM3928 cells; assay: WM3928 cell proliferation assay (1), resazurin, 96-well; type: cell-based; conditions: inhibition of cell proliferation
Experimental: WM3928 Cell Proliferation Assay (1)
WM3928 cells (#WM3928-01-0001) are obtained from Rockland Immunochemicals Inc (Gilbertsville, PA). Briefly, cells were grown in MCDB 153 medium (Sigma, #M7403, St. Louis, MO) supplemented with 20% Leibovitz's L-15 (ThermoFisher #11415-064, Waltham, MA), 2% heat inactivated fetal bovine serum (ThermoFisher, #A3840001, Waltham, MA), 5 μg/mL Insulin (Bovine Pancreas) (Sigma, #I0516, St. Louis, MO), 1.68 mM Calcium Chloride (Sigma, #C-34006, St. Louis, MO) and 1% Penicillin/Streptomycin/L-Glutamine (ThermoFisher #10378016, Waltham, MA) at 37° C., 5% CO2, and 95% humidity. Cells are expanded until reaching 70-95% confluency at which point they are subcultured or harvested for assay use. A serial dilution of test compound is dispensed into a 96-well black clear bottom plate in triplicate. Three thousand cells are added per well in 200 μL complete growth medium in the 96-well plate. Plates are incubated for 67-72 hours at 37° C., 5% CO2, and 95% humidity. At the end of the incubation, 40 μL of a 440 μM solution of resazurin (Sigma, #199303, St. Louis, MO) in PBS is added to each well of the plate and plates are incubated for an additional 6-7 hours at 37° C., 5% CO2, and 95% humidity. Plates are read on a Synergy2 or equivalent reader (Biotek, Winooski VT) using an excitation of 540 nm and an emission of 600 nm. Data is analyzed using Prism software (GraphPad, San Diego, CA) to calculate IC50 values.

| Structure (SMILES) | IC50 [µM] |
| --- | --- |
| Cc1cc(F)c(NC(=O)NCCC(C)(C)C)cc1-c1cc(OCCO)nc(C2=CCOCC2)c1 [Example 7] | 0.1 to 0.5 |
| Cc1cc(F)c(NC(=O)NCCC(C)(C)C)cc1-c1cc(N2CCOCC2)nc(N2CCOCC2)c1 [Example 10] | 0.1 to 0.5 |
| Cc1cc(F)c(NC(=O)NCCC(C)(C)F)cc1-c1cc(OCCO)nc(-c2ccnc3[nH]ncc23)c1 [Example 94] | 0.1 to 0.5 |
| Cc1cc(F)c(NC(=O)NCCC(C)(C)F)cc1-c1cc(OCCO)nc(-c2ccnc3[nH]ccc23)c1 [Example 97] | 0.1 to 0.5 |
| Cc1cc(F)c(NC(=O)NCC(C)C)cc1-c1cc(OCCO)nc(-c2ccnc(NC(=O)C3CC3)c2)c1 [Example 99] | 0.1 to 0.5 |
| Cc1cc(F)c(NC(=O)NCCC(C)(C)F)cc1-c1cccc(-c2ccnc3[nH]ncc23)c1 [Example 100] | 0.5 to 1 |
| Cc1cc(F)c(NC(=O)NC2CC3(COC3)C2)cc1-c1cc(OCCO)nc(-c2ccnc3[nH]ncc23)c1 [Example 101] | 1 to 10 |
| Cc1ncc(NC(=O)NC[C@H](O)C(C)(C)C)cc1-c1ccnc(-c2ccnc(NC(=O)C3CC3)c2)c1 [Example 102] | 1 to 10 |
| COC(=O)Nc1cc(-c2cc(-c3cc(NC(=O)NCCC4(C)CC4)cnc3C)ccn2)ccn1 [Example 103] | 0.5 to 1 |
| COC1(CCNC(=O)Nc2cc(-c3cccc(-c4cc(NC(=O)C5CC5)ncn4)c3)c(C)cc2F)CC1 [Example 104] | 0.1 to 0.5 |
| Cc1cc(F)c(NC(=O)NCCC(F)F)cc1-c1cc(OCCO)nc(-c2ccnc(NC(=O)C3CC3)c2)c1 [Example 105] | 0.5 to 1 |

Reference: patent publication US20230357179A1, “RAF KINASE INHIBITORS AND METHODS OF USE THEREOF” (Deciphera Pharmaceuticals, LLC, priority 2021, published 2023)
